The values below come from the METLIN SMRT retention time set (Domingo-Almenara et al. 2019).

The nature of this data set: gradient 5% acetonitrile 3 min, to 50% in 2 min, to 85% in 15 min, held 3 min, 100 µL/min. Particulars: column: Zorbax Extend-C18 2.1 x 50 mm; eluents: water / acetonitrile, 0.1% formic acid. In a few lines:
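Over 3 months, pure standards in mixtures of ~100 molecules were run by HPLC coupled to a quadrupole time-of-flight mass spectrometer in positive and negative ionization mode. The column was a Zorbax Extend-C18 (2.1 × 50 mm, 1.8 μm) at 100 μL/min, eluted with water and acetonitrile each holding 0.1% formic acid, with 40 μL dead and 900 μL dwell volumes. Retention time was determined from adduct peaks chosen by software and checked manually.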
In turn, `CSc1cccc(NC(=O)N2CCC(c3cc(=O)n4nccc4n3C)CC2)c1` yielded an RP-LC retention time of 679 s.

`Cc1noc(C)c1S(=O)(=O)N1CC(c2nnc(-c3ccncc3)o2)C2(CCOCC2)C1` (stereo not given) displayed an RP-LC retention time of 663 s.

`COc1ccc(C2(C(=O)N3CCCOCCNC(=O)[C@@H]4CCCC[C@@H]43)CC2)cc1`: the RP-LC retention time stood at 750 s.

Take `CC(=O)[C@H]1CC[C@H]2[C@@H]3CCC4=CC(=O)C=C[C@]4(C)[C@H]3C(=O)C[C@]12C`: the RP-LC retention time worked out at 921 s.

With `CCCn1cc(CCNS(=O)(=O)c2ccc(CC)cc2)c2cccnc21`, the RP-LC retention time worked out at 935 s.

`Cc1cc(C(=O)N2CCN(c3cccc(Cl)c3)CC2)n(-c2ccccc2)n1` had an RP-LC retention time of 1070 s.

For `CCOc1ccc(OCC)c(NC(=O)C2CCN(S(=O)(=O)c3cn(C(C)C)cn3)CC2)c1`, the RP-LC retention time amounted to 888 s.

Take `CCn1ccc2sc(C)c(C(=O)NCc3ccc(F)cc3Cl)c2c1=O`: the RP-LC retention time stood at 916 s.

The compound `CCOc1ccc(N2CC(c3nc(-c4cc(OC)c(OC)c(OC)c4)no3)CC2=O)cc1` (stereo not given) returned an RP-LC retention time of 954 s.

Compound `Cc1sc(NC(=O)c2ccco2)nc1-c1ccc2c(c1)N(C)C(=O)CO2` gave an RP-LC retention time of 844 s.

Compound `Cc1ccc(-c2nc3ccc(Br)cn3c2Nc2ccccc2C)cc1` had an RP-LC retention time of 892 s.

Regarding `Cc1cc(C)cc(NC2C=CS(=O)(=O)C2)c1` (stereo not given), the RP-LC retention time turned out to be 760 s.

`CCC1CCC(c2nnc(-c3ccc([N+](=O)[O-])cc3)o2)CC1` (stereo not given) had an RP-LC retention time of 1120 s.

Compound `CCCCN1C(=O)C(C)(C(=O)Nc2cc(C)ccc2C)Oc2cccnc21` (stereo not given) gave an RP-LC retention time of 1110 s.

Take `CN(C)c1ccc(-c2noc(CCC(=O)N3CCC4(CC3)OCCO4)n2)cc1`: the RP-LC retention time worked out at 789 s.

For `CCOCCCNCc1ccc(-c2ccccc2)o1`, the RP-LC retention time came out at 649 s.

Compound `Cc1cccc2sc(N(CCCN(C)C)C(=O)c3ccccc3Br)nc12` displayed an RP-LC retention time of 629 s.

`O=S(=O)(c1ccccc1Cl)N1CCc2nc(-c3ccccc3)ncc2C1` yielded an RP-LC retention time of 1080 s.

The compound `COCCCNC(=O)CN1C(=O)C2CCCCN2c2ccc(C(=O)N3CCCCC3)cc21` (stereo not given) returned an RP-LC retention time of 729 s.

For the compound `Cc1ccc(NC(=O)C2C(=O)NC3(C)CC2c2ccccc2O3)c(C)c1` (stereo not given), the RP-LC retention time was determined as 912 s.

On to `CN1C(=O)Cc2cc(C(=O)NCc3ccccc3C(F)(F)F)ccc21`, for which the RP-LC retention time amounted to 773 s.

In turn, `Cc1cc(C(=O)NC2CC2)c2cccc(Cl)c2n1` displayed an RP-LC retention time of 716 s.

`COCC(C)(O)CNC(=O)Nc1c(F)cccc1F` (stereo not given): the RP-LC retention time stood at 595 s.

With `CC(=O)c1cccc(NC(=O)Cn2nc3c4cc(-c5ccccc5)nn4ccn3c2=O)c1`, the RP-LC retention time was determined as 822 s.

`CC1(C)CC(=O)C2=C(C1)Nc1ccccc1N(CC(=O)Nc1cccc(F)c1)C2c1ccco1` (stereo not given) registered an RP-LC retention time of 924 s.

Compound `CCOCC(=O)N(C)CCc1noc(-c2ccc(C(=O)N3CCCC3)cc2)n1` registered an RP-LC retention time of 648 s.

On to `Cc1ccc(=O)n(CCNC(=O)c2ccc3nsnc3c2)n1`, for which the RP-LC retention time was determined as 619 s.

In turn, `CCN1CCN(C(=O)C2CCCN(S(=O)(=O)c3ccc(OC)c(OC)c3)C2)CC1` (stereo not given) came in with an RP-LC retention time of 593 s.

Compound `CCS(=O)(=O)N1CC(=O)N(c2cccc(F)c2)C(C)(C(=O)NCc2ccccc2)C1` (stereo not given) returned an RP-LC retention time of 779 s.

Compound `CCOC(=O)c1ccc(NC(=O)C2CCCN2S(=O)(=O)c2cc(C(=O)OC)n(C)c2)cc1` (stereo not given) showed an RP-LC retention time of 900 s.

With `CN1CCN(C(=O)c2cc3n(n2)CC(C)(C(=O)NCc2ccc(F)cc2)N(C)C3=O)CC1` (stereo not given), the RP-LC retention time was 576 s.

`O=C(C1CC1)N1CCCC(OCc2nc(-c3ccncc3)no2)C1` (stereo not given) returned an RP-LC retention time of 619 s.

Compound `O=C(NCC1CCOCC1)Nc1ccccc1` returned an RP-LC retention time of 656 s.

Regarding `FC1(F)CN[C@H](c2nc(-c3ccccc3)no2)C1`, the RP-LC retention time came out at 794 s.

`O=C(Cn1c(-c2cccs2)nc2ccccc21)NC1CC1` displayed an RP-LC retention time of 596 s.

With `Cc1ccc(N2C=NS(=O)(=O)c3cccnc32)cc1C`, the RP-LC retention time was 840 s.

Regarding `CN(C)CCNC(=O)C1CCN(c2nc3ccc(-c4ccsc4)nc3s2)CC1`, the RP-LC retention time was 645 s.

As to `O=C(Cc1cc(-c2ccco2)on1)NCc1ccccn1`, the RP-LC retention time turned out to be 581 s.

The compound `O=C(Nc1cccc(Cl)c1)N1CCc2nc[nH]c2C1` had an RP-LC retention time of 597 s.

Regarding `O=C(CCc1c(-c2ccccc2)nc2ccccn12)NCc1ccccc1F`, the RP-LC retention time is 652 s.

On to `CCCCN(C)C(=O)C1CCN(c2cncnc2N2CCCCC2)CC1`, for which the RP-LC retention time was determined as 661 s.

For the compound `CSc1ccc(-c2nc3cnccn3c2Nc2cccc(C(=O)NC(C)C)c2)cc1`, the RP-LC retention time stood at 784 s.

Compound `Cc1cccc(NC(=O)C2CCN(C(=O)c3ncn4c3COC(c3ccccc3)C4)CC2)c1` (stereo not given) displayed an RP-LC retention time of 798 s.

`COc1ccc(NC(=O)C2CN(S(C)(=O)=O)CC23CCCCC3)cc1` (stereo not given): the RP-LC retention time was 852 s.

`O=C(CSc1nnc2c3cc(-c4ccccc4)nn3ccn12)NCc1ccccc1` yielded an RP-LC retention time of 781 s.

Consider `COc1ccc(NS(=O)(=O)c2cc(-c3nc(C)c(C(=O)N4CCCC4)s3)n(C)c2)c(OC)c1`, for which the RP-LC retention time is 794 s.

`O=C(c1cccnc1)c1cc(-c2ccccn2)c(=O)n2ccccc12` came in with an RP-LC retention time of 630 s.

Compound `CCCN1CCN(C(=O)c2cc3n(n2)CC(C)(C(=O)NC2CCCCCC2)N(C)C3=O)CC1` (stereo not given) showed an RP-LC retention time of 614 s.

In the case of `CCc1ccc(NC(=O)C2CC(=O)N(c3n[nH]c4cccc(F)c34)C2)cc1` (stereo not given), the RP-LC retention time was determined as 847 s.

In turn, `COc1ccc(CCNC(=O)CSc2nc3sc(C)cc3c(=O)n2C)cc1OC` registered an RP-LC retention time of 689 s.

`N#Cc1ccc(C(=O)NC(c2ccccc2)c2nnc(N3CCCCC3)o2)cc1` (stereo not given) showed an RP-LC retention time of 740 s.

With `O=C(CN1C(=O)CCCc2cc(S(=O)(=O)N3CCCC3)ccc21)Nc1cccc(Cl)c1`, the RP-LC retention time was 890 s.

`CN1C(=O)C2(CCN(C(=O)c3cccc(F)c3)C2)c2ccccc21` (stereo not given) displayed an RP-LC retention time of 765 s.

`COc1ccc(-n2c(=O)n(C)c(=O)c3cc(C(=O)Nc4ccc(Cl)cc4)cnc32)cc1` showed an RP-LC retention time of 966 s.

On to `O=C(Cn1cccc1-c1nnc(C2CCC2)o1)Nc1ccc(F)cc1`, for which the RP-LC retention time came out at 897 s.

As to `Fc1cccc(-c2nc3ncccn3c2NC2CCCCC2)c1`, the RP-LC retention time is 834 s.

The compound `Cc1[nH]c2ccc(-c3nnc(SCC(=O)NCc4nc5ccccc5[nH]4)o3)cc2c1C` showed an RP-LC retention time of 642 s.

`Cc1ccc(-n2nc(N3CCCC(C(=O)NCCC4=CCCCC4)C3)ccc2=O)cc1Cl` (stereo not given): the RP-LC retention time stood at 1060 s.

In turn, `Cc1nn(-c2ccc(C(=O)N3CCN(C(=O)c4ccco4)CC3)cc2)c2c1C(=O)CCC2` displayed an RP-LC retention time of 664 s.

`CCOc1ccccc1-c1noc(Cn2c(=O)n(CC3CCCO3)c(=O)c3ccccc32)n1` (stereo not given): the RP-LC retention time is 966 s.

With `Cc1ccc(CNC(=O)C2(C)CCCN(C(=O)NC(C)C)C2)cc1` (stereo not given), the RP-LC retention time was determined as 766 s.

Consider `O=C(CCc1c(-c2ccc(F)cc2)nc2ccccn12)NC1CC1`, for which the RP-LC retention time was 587 s.

`CCOc1ccc(NS(=O)(=O)c2cc(C(=O)N3CCN(c4ccccc4OC)CC3)n[nH]2)cc1` had an RP-LC retention time of 846 s.

`Cc1ccccc1Cn1cc(-c2ccncc2)cc1C(=O)NCc1cccnc1` yielded an RP-LC retention time of 581 s.

The compound `COc1ccc2cc3c(=O)n(Cc4ccccc4)nc-3oc2c1` showed an RP-LC retention time of 833 s.

The compound `CCn1ncn2cc(S(=O)(=O)NCc3ccccc3)cc2c1=O` gave an RP-LC retention time of 800 s.

For the compound `Cc1ccc(CN(CC(=O)N2CCNCC2)C(=O)c2sccc2C)cc1C`, the RP-LC retention time came out at 669 s.

In the case of `CCOC(=O)c1[nH]c(C)c(CCC(=O)N2CCC(C(=O)N3CCOCC3)CC2)c1C`, the RP-LC retention time turned out to be 646 s.

As for `CCn1nc(N2CCCC(N)C2)ccc1=O` (stereo not given), the RP-LC retention time came to 497 s.

As to `NC(=O)[C@@H]1C[C@H](Oc2cccnc2)CN1C(=O)Cn1c(=O)oc2ccccc21`, the RP-LC retention time worked out at 564 s.

The compound `CCn1cc(S(=O)(=O)N2CCC(c3nn(C)c(=O)n3C3CCCC3)CC2)cn1` came in with an RP-LC retention time of 717 s.

As to `Cc1ccsc1CCNC(=O)Cn1nc(C(=O)N2CCCC2)c2ccccc21`, the RP-LC retention time is 824 s.

For the compound `O=C(CSc1ccncc1)Nc1ccc(OCc2nnc(-c3ccccc3)o2)cc1`, the RP-LC retention time is 884 s.

With `O=C(NCc1ccc(F)cc1F)C1CC(=O)N(c2ccc3c(c2)CCN3C(=O)C2CC2)C1` (stereo not given), the RP-LC retention time came to 750 s.

As for `CCn1c(=O)sc2cc(S(=O)(=O)N3CCC(C(=O)NCCc4ccccc4)CC3)ccc21`, the RP-LC retention time is 942 s.

The compound `CSc1cccc(NC(=O)C2CCCN(c3nnc(C)c4c(C)n(-c5ccccc5)nc34)C2)c1` (stereo not given) registered an RP-LC retention time of 798 s.

`CCOc1cc(C2C(C(=O)OC(C)C)=C(C)N=C3SCCC(=O)N32)ccc1OC(C)=O` (stereo not given) registered an RP-LC retention time of 908 s.

Turning to `Cn1c(=O)c2c(nc(N3CCOCC3)n2C)n(C)c1=O`, the RP-LC retention time came out at 663 s.

`COc1ccc(-c2nc(-c3ccc4c(c3)oc(=O)n4C)no2)c(C)c1` had an RP-LC retention time of 1100 s.

The compound `Cc1cccc(CNC(=O)c2cc(C(C)(C)C)n3nccc3n2)c1` came in with an RP-LC retention time of 1230 s.
